Data as given in ChEMBL document CHEMBL5465560, “Selectivity Literature for EUbOPEN Chemogenomic Library” (2024).
Values belong to the molecule of their own block, whether it stands above or below them.

Tests used:
[1] = target: Casein kinase II subunit alpha' (Homo sapiens) (UniProt P19784); experiment: Selectivity interaction (Kinase panel (DSF assay)) EUB0001559a CSNK2A2
[2] = target: T1, Phosphatidylinositol 3-kinase C2 domain-containing subunit gamma (Homo sapiens) (UniProt O75747); experiment: Selectivity interaction (KinomeScan (DiscoverX)) EUB0001079a PIK3C2G; conditions: at 1 µM
T1 sequence (whole entry): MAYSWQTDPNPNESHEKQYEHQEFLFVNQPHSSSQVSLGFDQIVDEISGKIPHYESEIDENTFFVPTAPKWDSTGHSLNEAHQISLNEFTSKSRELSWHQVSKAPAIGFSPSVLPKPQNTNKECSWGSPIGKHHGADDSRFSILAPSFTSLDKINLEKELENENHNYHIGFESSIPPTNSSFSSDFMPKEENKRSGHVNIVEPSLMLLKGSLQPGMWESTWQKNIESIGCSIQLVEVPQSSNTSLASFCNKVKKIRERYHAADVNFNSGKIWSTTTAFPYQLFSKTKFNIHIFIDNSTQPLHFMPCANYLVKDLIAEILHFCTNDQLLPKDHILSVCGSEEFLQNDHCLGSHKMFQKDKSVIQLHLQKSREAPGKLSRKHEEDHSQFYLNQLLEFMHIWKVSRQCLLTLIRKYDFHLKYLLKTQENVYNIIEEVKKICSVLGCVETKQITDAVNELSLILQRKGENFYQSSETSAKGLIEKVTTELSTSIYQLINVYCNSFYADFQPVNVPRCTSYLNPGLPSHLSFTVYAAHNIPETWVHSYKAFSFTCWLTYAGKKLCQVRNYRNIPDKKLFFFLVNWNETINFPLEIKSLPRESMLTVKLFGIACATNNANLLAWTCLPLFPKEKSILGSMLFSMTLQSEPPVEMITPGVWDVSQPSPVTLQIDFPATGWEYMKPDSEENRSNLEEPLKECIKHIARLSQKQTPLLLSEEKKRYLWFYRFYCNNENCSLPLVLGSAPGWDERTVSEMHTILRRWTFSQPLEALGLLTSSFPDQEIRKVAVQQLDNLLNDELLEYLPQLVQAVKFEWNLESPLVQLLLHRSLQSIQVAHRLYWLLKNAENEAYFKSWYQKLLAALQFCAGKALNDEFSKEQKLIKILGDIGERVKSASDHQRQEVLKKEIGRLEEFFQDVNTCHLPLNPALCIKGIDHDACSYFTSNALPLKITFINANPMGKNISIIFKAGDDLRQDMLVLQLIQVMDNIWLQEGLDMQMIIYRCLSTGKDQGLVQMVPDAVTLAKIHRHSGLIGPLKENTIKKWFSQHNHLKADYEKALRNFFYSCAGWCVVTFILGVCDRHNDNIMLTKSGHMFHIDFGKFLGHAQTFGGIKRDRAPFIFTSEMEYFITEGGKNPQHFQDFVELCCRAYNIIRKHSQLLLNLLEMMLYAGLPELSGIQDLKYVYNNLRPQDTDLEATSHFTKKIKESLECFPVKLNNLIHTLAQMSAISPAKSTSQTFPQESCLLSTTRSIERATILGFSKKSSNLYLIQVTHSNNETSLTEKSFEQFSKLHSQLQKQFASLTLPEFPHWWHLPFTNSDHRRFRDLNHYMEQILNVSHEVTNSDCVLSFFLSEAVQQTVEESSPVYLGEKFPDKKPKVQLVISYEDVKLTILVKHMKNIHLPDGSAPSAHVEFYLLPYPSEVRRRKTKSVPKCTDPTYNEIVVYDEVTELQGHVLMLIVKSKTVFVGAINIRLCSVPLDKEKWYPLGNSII

[3] = target: Ribosomal protein S6 kinase alpha-3 (Homo sapiens, UniProt P51812); experiment: Selectivity interaction (ActivX KiNativ screen (kinase selectivity in THP-1 cell lysates)) EUB0000639a RPS6KA3; assay type: subcellular; conditions: lysate, at 0.04 µM
Sequence of Ribosomal protein S6 kinase alpha-3 (P51812 whole entry): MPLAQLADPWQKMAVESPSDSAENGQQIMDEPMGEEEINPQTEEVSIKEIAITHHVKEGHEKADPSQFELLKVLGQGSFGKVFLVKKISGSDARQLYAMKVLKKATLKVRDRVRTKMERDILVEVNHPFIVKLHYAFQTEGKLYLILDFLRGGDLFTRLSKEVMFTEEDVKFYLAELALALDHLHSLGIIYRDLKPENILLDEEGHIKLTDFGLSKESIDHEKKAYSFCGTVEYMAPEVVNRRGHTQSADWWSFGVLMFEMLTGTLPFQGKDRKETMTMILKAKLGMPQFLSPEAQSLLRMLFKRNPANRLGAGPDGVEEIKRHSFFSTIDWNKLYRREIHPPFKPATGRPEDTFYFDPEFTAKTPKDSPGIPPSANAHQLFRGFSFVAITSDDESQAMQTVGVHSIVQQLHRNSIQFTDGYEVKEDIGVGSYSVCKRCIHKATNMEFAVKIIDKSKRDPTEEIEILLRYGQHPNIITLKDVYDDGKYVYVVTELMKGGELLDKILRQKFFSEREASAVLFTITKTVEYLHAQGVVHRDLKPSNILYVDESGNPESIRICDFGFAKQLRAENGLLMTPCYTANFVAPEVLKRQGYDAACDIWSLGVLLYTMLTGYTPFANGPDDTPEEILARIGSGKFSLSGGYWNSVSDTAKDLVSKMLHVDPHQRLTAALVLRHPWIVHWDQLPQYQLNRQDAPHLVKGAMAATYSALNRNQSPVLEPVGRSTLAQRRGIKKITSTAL

[4] = system: Tyrosine-protein kinase ABL1 (Homo sapiens), P00519 [F317I]; experiment: Selectivity interaction (KinomeScan (DiscoverX)) EUB0001049a ABL1; conditions: at 1 µM
Sequence of Tyrosine-protein kinase ABL1 (Homo sapiens), P00519 [F317I] (P00519 whole entry F317I): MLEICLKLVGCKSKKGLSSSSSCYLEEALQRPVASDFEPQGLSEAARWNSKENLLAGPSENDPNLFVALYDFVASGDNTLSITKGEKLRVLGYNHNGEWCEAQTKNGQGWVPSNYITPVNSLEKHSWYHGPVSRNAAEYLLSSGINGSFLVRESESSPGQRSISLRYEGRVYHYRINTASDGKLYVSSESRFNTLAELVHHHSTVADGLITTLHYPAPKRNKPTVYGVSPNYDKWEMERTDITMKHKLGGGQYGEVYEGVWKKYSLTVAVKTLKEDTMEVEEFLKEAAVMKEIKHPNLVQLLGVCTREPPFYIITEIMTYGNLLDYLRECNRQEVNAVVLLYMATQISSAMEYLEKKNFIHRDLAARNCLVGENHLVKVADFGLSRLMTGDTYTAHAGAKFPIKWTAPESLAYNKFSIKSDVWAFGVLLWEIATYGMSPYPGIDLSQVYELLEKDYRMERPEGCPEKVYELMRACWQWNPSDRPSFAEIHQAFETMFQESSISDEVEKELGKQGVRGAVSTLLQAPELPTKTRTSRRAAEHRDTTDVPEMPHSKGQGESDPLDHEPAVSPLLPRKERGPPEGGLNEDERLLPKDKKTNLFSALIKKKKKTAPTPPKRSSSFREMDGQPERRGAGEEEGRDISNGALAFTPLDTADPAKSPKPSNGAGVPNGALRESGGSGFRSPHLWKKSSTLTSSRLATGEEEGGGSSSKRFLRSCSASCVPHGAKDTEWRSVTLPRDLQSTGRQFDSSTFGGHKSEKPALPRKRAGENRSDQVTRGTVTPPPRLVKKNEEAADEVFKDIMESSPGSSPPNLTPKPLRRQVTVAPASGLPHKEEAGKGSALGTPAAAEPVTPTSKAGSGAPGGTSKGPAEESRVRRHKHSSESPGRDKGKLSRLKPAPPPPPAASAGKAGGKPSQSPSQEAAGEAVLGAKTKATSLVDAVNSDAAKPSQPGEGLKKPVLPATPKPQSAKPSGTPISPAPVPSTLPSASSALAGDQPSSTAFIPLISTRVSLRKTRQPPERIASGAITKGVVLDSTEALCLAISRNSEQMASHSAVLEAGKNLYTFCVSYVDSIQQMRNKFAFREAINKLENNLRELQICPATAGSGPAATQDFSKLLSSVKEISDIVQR

[5] = target: AP2-associated protein kinase 1 (Homo sapiens, UniProt Q2M2I8); experiment: Selectivity interaction (KinomeScan (DiscoverX)) EUB0000092b AAK1; conditions: at 10 µM
Sequence of AP2-associated protein kinase 1 (Q2M2I8 whole entry, looked up): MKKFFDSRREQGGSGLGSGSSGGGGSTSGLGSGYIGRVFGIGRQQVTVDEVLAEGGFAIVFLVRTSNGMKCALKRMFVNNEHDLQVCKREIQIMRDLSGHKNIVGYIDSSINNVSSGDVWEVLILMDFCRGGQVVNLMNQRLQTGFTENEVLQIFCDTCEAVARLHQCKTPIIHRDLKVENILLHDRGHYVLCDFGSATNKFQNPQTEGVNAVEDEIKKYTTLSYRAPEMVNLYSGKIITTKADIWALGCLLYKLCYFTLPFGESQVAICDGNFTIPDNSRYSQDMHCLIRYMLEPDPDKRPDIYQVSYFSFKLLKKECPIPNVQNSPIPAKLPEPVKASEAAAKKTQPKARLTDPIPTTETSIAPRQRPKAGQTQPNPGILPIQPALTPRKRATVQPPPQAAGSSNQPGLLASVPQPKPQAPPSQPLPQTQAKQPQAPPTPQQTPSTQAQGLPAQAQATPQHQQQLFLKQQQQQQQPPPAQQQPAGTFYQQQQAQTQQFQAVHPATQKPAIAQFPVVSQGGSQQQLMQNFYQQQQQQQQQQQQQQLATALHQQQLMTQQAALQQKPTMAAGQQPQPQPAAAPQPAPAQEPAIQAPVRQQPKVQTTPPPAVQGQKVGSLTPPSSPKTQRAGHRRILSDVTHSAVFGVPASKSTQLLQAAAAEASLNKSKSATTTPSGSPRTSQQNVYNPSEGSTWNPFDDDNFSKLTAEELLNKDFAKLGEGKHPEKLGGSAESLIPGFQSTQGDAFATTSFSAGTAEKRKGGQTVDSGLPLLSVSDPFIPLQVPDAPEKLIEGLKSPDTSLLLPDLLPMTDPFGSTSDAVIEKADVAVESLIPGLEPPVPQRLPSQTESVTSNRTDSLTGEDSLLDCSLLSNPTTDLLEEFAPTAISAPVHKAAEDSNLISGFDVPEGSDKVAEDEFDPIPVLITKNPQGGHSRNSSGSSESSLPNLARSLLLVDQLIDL

[6] = target: Glycogen synthase kinase-3 alpha (Homo sapiens, UniProt P49840); experiment: Selectivity interaction (Rxn Biology Kinase assay) EUB0001632a GSK3A; conditions: at 10 µM
Sequence of Glycogen synthase kinase-3 alpha (P49840 2-483 limits assumed): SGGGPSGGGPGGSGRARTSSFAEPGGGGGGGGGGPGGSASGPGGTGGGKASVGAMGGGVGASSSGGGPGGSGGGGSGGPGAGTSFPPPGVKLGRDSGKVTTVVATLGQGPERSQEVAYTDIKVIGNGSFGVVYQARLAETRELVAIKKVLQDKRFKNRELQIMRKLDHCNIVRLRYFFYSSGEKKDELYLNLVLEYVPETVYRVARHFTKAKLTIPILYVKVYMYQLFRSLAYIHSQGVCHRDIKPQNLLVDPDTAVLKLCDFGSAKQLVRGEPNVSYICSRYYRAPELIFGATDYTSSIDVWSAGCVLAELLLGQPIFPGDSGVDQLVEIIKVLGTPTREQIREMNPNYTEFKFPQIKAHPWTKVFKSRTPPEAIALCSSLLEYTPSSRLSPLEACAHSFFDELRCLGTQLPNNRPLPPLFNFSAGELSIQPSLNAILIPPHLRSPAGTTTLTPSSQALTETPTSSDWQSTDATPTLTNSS

Sequence of Casein kinase II subunit alpha' (Homo sapiens) (P19784 whole entry, looked up, the tested form may be a part): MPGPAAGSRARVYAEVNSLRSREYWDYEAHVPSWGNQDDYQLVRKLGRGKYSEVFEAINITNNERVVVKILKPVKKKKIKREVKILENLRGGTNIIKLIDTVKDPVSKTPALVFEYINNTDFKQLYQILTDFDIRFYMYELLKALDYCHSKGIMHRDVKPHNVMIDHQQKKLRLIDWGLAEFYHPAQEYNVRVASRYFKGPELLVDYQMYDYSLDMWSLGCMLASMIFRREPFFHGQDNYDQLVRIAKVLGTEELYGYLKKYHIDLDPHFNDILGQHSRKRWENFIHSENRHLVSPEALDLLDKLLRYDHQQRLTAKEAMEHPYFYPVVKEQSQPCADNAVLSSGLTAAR

Compound: Nc1cnc(N2CCc3cc(S(=O)(=O)Nc4c(F)cc(Cl)cc4F)cc(N4CCCC4=O)c32)nc1 [TP-020n]
% of control [2]: 78%

Compound: COc1cc(Nc2nc(C)cc(-c3cnn4nc(OC)ccc34)n2)cc(C(F)(F)F)c1
% of control [4]: 67%

Compound: CCC(=O)N1CCN(c2ccc(-n3c(=O)ccc4cnc5ccc(-c6cnc7ccccc7c6)cc5c43)cc2C(F)(F)F)CC1
% of control [5]: 75%

Second part, the molecule after the results:

dTM [1]: 1.4 K
Compound: CN(C(=O)c1cnn2cccnc12)c1cc2c(cc1N1CCOCC1)C(=O)N(C[C@@H](F)C(C)(C)O)C2

% of inhibition [3]: 14.5%
Compound: CC[C@@H]1[C@H](F)C(=O)N[C@@H]1COc1nccc2cc(C(N)=O)c(OC)cc12 [ZIMLOVISERTIB]

% of inhibition [6]: 90.6%
Compound: Cn1cc(-n2cnc3c(NCc4nc5cc(Cl)c(Cl)cc5[nH]4)nc(N4CCOCC4)nc32)cn1
